Measurements from patent publication US20230089247A1, “NOVEL COMPOUNDS SUITABLE FOR THE TREATMENT OF DYSLIPIDEMIA” (ZYDUS LIFESCIENCES LIMITED, priority 2019, published 2023).

Legend:
PCSK9 = PCSK9 (Homo sapiens, UniProt Q8NBP7); assay: BODIPY-LDL uptake assay in HepG2 cells; type: cell-based; settings: 5 μg/ml PCSK9, BODIPY-LDL
Outline: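 Compounds pre-incubated 60 min with 5 μg/ml PCSK9 (0.2% DMSO), then added to HepG2 cells for 16 h; 1 μg/ml BODIPY-LDL added in serum-free medium for 5 h. Fluorescence (Ex 485/Em 520 nm) normalized to protein; PCSK9-only wells = 0%, no-PCSK9 wells = 100% uptake, giving percent increase in LDL uptake.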

High Fat Diet C57 Mice = assay: LDL-C lowering activity in high fat diet C57 mice; type: in vivo; settings: Mus musculus, po, 168 h; C57 mice on high fat diet; 30 mg/Kg orally once a day, 7 days treatment, blood on day 7; read-out: % Change Vs Vehicle Control in LDLc
Procedure: LDL-C Lowering Activity—in High Fat Diet C57 Mice
The in-vivo LDL-c lowering for test compound was tested in C57 mice which were kept on high fat diet for 4 weeks and the blood was collected by retro-orbital sinus puncture method under light ether anesthesia on day 0 (pretreatment). Animal are grouped based on LDL-c levels, after that 7 days treatment with vehicle or test compound orally at a dose of 30 mpk dose once a day was given. On completion of treatment on day 7 of the treatment the blood was collected for LDL-c and TC levels measurement.

PCSK9, sequence (Q8NBP7 153-692): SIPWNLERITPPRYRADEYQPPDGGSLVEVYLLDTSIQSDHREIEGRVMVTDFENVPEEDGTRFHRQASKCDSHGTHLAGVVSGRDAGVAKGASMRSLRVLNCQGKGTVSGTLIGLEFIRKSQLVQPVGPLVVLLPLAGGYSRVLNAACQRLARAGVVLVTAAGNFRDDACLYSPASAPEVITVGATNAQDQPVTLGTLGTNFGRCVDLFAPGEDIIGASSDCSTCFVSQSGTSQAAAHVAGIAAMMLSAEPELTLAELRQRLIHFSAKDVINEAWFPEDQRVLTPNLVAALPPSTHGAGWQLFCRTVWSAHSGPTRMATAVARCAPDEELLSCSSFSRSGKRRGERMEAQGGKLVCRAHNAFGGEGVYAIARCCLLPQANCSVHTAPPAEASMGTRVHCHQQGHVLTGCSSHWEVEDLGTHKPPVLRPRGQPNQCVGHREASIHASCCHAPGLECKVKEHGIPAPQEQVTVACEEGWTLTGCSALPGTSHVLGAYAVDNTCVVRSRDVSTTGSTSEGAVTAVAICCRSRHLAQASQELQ

SMILES	% increase in LDL Uptake (PCSK9; 1 μM test compound) [%]	% increase in LDL Uptake (PCSK9; 10 μM test compound) [%]	% increase in LDL Uptake (PCSK9; 30 μM test compound) [%]	change in vivo at 30 mg/kg (High Fat Diet C57 Mice) [%]
O=C(c1ccc(C2(O)CCOCC2)cc1)N1CCC(c2ccc(C(F)(F)F)cc2)CC1 [Example 142, (4-(4-hydroxytetrahydro-2H-pyran-4-yl)phenyl)(4-(4-(trifluoromethyl)phenyl)piperidin-1-yl)methanone]	0	77	16	-26 ± 10
COC1(c2ccc(C(=O)N3CCC(c4ccc(C(F)(F)F)cc4)CC3)cc2)CCNCC1 [Example 144, (4-(4-methoxypiperidin-4-yl)phenyl)(4-(4-(trifluoromethyl)phenyl)piperidin-1-yl)methanone]	1	16	77	-66 ± 10
COC1(c2ccc(C(=O)N3CCC(c4ccc(C(F)(F)F)cc4)CC3)cc2)COC1 [Example 2, (4-(3-methoxyoxetan-3-yl)phenyl)(4-(4-(trifluoromethyl)phenyl)piperidin-1-yl)methanone]	13	86	172	-45 ± 5
COC1(c2ccc(C(=O)N3CC4CN(c5ccc(C(F)(F)F)nc5)CC4C3)cc2)COC1 (stereo not shown) [Example 206, (4-(3-methoxyoxetan-3-yl)phenyl)(5-(6-(trifluoromethyl)pyridin-3-yl)hexahydropyrrolo[3,4-c]pyrrol-2(1H)-yl)methanone]	0	81	127	-18.6 ± 5.7
CCOC1(c2ccc(C(=O)N3CC4CN(c5ccc(C(F)(F)F)cc5)CC4C3)cc2)COC1 (stereo not shown) [Example 58, (4-(3-ethoxyoxetan-3-yl)phenyl)(5-(4-(trifluoromethyl)phenyl)hexahydropyrrolo[3,4-c]pyrrol-2 (1H)-yl)methanone]	25	21	43	-44 ± 3
O=C(c1cccc(C2(O)COC2)c1)N1CCN(c2ccc(C(F)(F)F)cn2)CC1 [Example 220, (3-(3-hydroxyoxetan-3-yl)phenyl)(4-(5-(trifluoromethyl)pyridin-2-yl)piperazin-1-yl)methanone]	8	31	56	-16
O=C(c1ccc(C2(O)COC2)cc1)N1CC2CC(c3ccc(C(F)(F)F)cc3)CC2C1 (stereo not shown) [Example 10, (4-(3-hydroxyoxetan-3-yl)phenyl)(5-(4-(trifluoromethyl)phenyl)hexahydrocyclopenta[c]pyrrol-2(1H)-yl)methanone]	0	273	347	-15 ± 8
O=C(Nc1cccc(C2(O)COC2)c1)N1CC2CN(c3ccc(C(F)(F)F)cc3)CC2C1 (stereo not shown) [Example 182, N-(3-(3-hydroxyoxetan-3-yl)phenyl)-5-(4-(trifluoromethyl)phenyl) hexahydropyrrolo[3,4-c]pyrrole-2(1H)-carboxamide]	42	37	60	-5 ± 11
COC1(c2ccc(C(=O)N3CC4CN(c5ccc(C(F)(F)F)cc5)CC4C3)cc2)COC1 (stereo not shown) [Example 57, (4-(3-methoxyoxetan-3-yl)phenyl)(5-(4-(trifluoromethyl)phenyl)hexahydropyrrolo[3,4-c]pyrrol-2(1H)-yl)methanone]	6	32	53	-43 ± 9
O=C(c1ccc(C2(O)COC2)cc1)N1CC2CN(c3ccc(C(F)(F)F)cc3)CC2C1 (stereo not shown) [Example 11, (4-(3-hydroxyoxetan-3-yl)phenyl)(5-(4-(trifluoromethyl)phenyl)hexahydropyrrolo[3,4-c]pyrrol-2 (1H)-yl)methanone]	6	59	116	-48 ± 5
O=C(c1ccc(C2(O)COC2)cc1)N1CCN(c2ccc(C(F)(F)F)cn2)CC1 [Example 216, (4-(3-hydroxyoxetan-3-yl)phenyl)(4-(5-(trifluoromethyl)pyridin-2-yl)piperazin-1-yl)methanone]	0	64	189	-40 ± 6
OC1(c2ccc(N3CCC(c4ccc(C(F)(F)F)cc4)CC3)cc2)COC1 [Example 8, 3-(4-(4-(4-(trifluoromethyl)phenyl)piperidin-1-yl)phenyl)oxetan-3-ol]	0	73	114	-30 ± 8
O=C(c1ccc(C2(O)COC2)cc1)N1CCC(O)(c2ccc(C(F)(F)F)cc2)CC1 [Example 86, (4-hydroxy-4-(4-(trifluoromethyl)phenyl)piperidin-1-yl)(4-(3-hydroxyoxetan-3-yl)phenyl)methanone]	2	33	55	-28 ± 4
O=C(c1ccc(C2(O)COC2)cc1)N1CCN(c2ccc(C(F)(F)F)cc2)CC1 [Example 6, (4-(3-hydroxyoxetan-3-yl)phenyl)(4-(4-(trifluoromethyl)phenyl)piperazin-1-yl)methanone]	0	106	179	0.6 ± 9
CCOC1(c2ccc(C(=O)N3CCC(c4ccc(C(F)(F)F)cc4)CC3)cc2)COC1 [Example 43, (4-(3-ethoxyoxetan-3-yl)phenyl)(4-(4-(trifluoromethyl)phenyl)piperidin-1-yl)methanone]	0	12	5	-27 ± 10
COC1(c2ccc(C(=O)N3CCN(c4ccc(C(F)(F)F)cc4)CC3)cc2)COC1 [Example 53, (4-(3-methoxyoxetan-3-yl)phenyl)(4-(4-(trifluoromethyl)phenyl)piperazin-1-yl)methanone]	4	80	129	-15 ± 6
